Results on eight molecules are retold here after PubChem BioAssay (NCI).

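48-hour exposure; five concentrations; linearly interpolated endpoints. At the GI50, growth is halved. The concentration for full growth arrest is given as TGI.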

Test systems include BT-549 breast; OVCAR-3 ovarian; COLO 205 colon; SNB-75 CNS; SK-MEL-5 melanoma; SF-539 CNS; SW-620 colon; HOP-62 NSCLC; K-562 leukemia; MCF7 breast.
Experiment in all cases: inhibition of tumour cell growth, NCI panel, 48 h

`NS(=O)(=O)c1ccc(N=Nc2c(O)[nH]c3ccc(C(=O)NCc4ccncc4)cc23)cc1`: the GI50 with BT-549 breast is above 9.38 µM; in the experiment on OVCAR-3 ovarian, above 25 µM; in the experiment with COLO 205 colon it was above 25 µM; in the experiment on SNB-75 CNS, above 25 µM; in the experiment with SK-MEL-5 melanoma, above 25 µM; in the experiment with SF-539 CNS, above 25 µM. The GI50 in the experiment with SW-620 colon, in the experiment with HOP-62 NSCLC, with K-562 leukemia and in the experiment with MCF7 breast was above 25 µM throughout. Moreover, the TGI with BT-549 breast, in the experiment with OVCAR-3 ovarian, with COLO 205 colon, in the experiment on SNB-75 CNS, in the experiment with SK-MEL-5 melanoma and in the experiment with SF-539 CNS was above 25 µM throughout. For the same molecule, the TGI in the experiment with SW-620 colon, in the experiment on HOP-62 NSCLC, in the experiment on K-562 leukemia and with MCF7 breast was above 25 µM throughout.
In the case of `CCCn1cnc2c(SCC(=O)O)nc(N)nc21`, the TGI with BT-549 breast, in the experiment on OVCAR-3 ovarian, with COLO 205 colon, in the experiment with SNB-75 CNS, in the experiment on SK-MEL-5 melanoma and with SW-620 colon was above 100 µM throughout. Also, the TGI in the experiment with HOP-62 NSCLC, with K-562 leukemia and in the experiment with MCF7 breast was above 100 µM throughout.
Turning to `NCCCCC1NC(=O)C(CC(=O)O)NC(=O)CNC(=O)C(CCCN=C(N)N)NC(=O)C(N)CSSCC(C(=O)O)NC(=O)C(CC(=O)O)NC(=O)C2CCCN2C(=O)CNC1=O` (configuration not stated), the GI50 in the experiment with BT-549 breast, with OVCAR-3 ovarian, with COLO 205 colon, in the experiment with SNB-75 CNS, with SK-MEL-5 melanoma and in the experiment on SF-539 CNS was above 100 µM throughout. In addition, the GI50 in the experiment on SW-620 colon, in the experiment on HOP-62 NSCLC and in the experiment with MCF7 breast was above 100 µM in each case. Besides, the TGI in the experiment on BT-549 breast, with OVCAR-3 ovarian, in the experiment with COLO 205 colon, in the experiment on SNB-75 CNS, in the experiment with SK-MEL-5 melanoma and in the experiment on SF-539 CNS was above 100 µM each time. The TGI in the experiment with SW-620 colon, with HOP-62 NSCLC and with MCF7 breast was above 100 µM in each case.
On to `O=C(/C=C/c1ccc(C(F)(F)F)cc1)Nc1ccc(C=C2c3ccccc3C(=O)c3ccccc32)cc1`, for which the GI50 in the experiment with BT-549 breast was 3.33 µM; with OVCAR-3 ovarian, 3.76 µM; in the experiment on COLO 205 colon, 6.18 µM; in the experiment with SNB-75 CNS it was 7.26 µM; in the experiment on SK-MEL-5 melanoma, 2.71 µM; in the experiment with SF-539 CNS, 23.1 µM. In addition, the GI50 in the experiment with SW-620 colon was 4.57 µM; with HOP-62 NSCLC, 11.7 µM; in the experiment with MCF7 breast, 4.54 µM. Further, the TGI in the experiment with BT-549 breast turned out to be 48 µM; in the experiment with OVCAR-3 ovarian, 18 µM; in the experiment on COLO 205 colon, 38.4 µM; with SNB-75 CNS it was 39.1 µM; in the experiment on SK-MEL-5 melanoma, 13.4 µM; with SF-539 CNS, 96.3 µM. Moreover, the TGI was above 100 µM with SW-620 colon, 51.9 µM with HOP-62 NSCLC and above 100 µM in the experiment with MCF7 breast.
As to `CN1CCN(CCOc2ccc(-c3cnc4c(-c5cccc(F)c5)cnn4c3)cc2)CC1`, the GI50 in the experiment on BT-549 breast is 3.51 µM; with OVCAR-3 ovarian, 1.87 µM; with SNB-75 CNS it was 1.39 µM; in the experiment with SK-MEL-5 melanoma, 1.69 µM; in the experiment with SF-539 CNS it was 1.49 µM; in the experiment with SW-620 colon, 1.81 µM. Moreover, the GI50 in the experiment on HOP-62 NSCLC is 1.72 µM; with K-562 leukemia it was 0.915 µM; in the experiment on MCF7 breast, 1.51 µM. The TGI in the experiment with BT-549 breast is 14.1 µM; in the experiment on OVCAR-3 ovarian it was 4.03 µM; in the experiment with SNB-75 CNS it was 3.53 µM; with SK-MEL-5 melanoma it was 3.08 µM; with SF-539 CNS it was 2.88 µM; with SW-620 colon it was 3.4 µM. The figures for the TGI with HOP-62 NSCLC, in the experiment on K-562 leukemia and in the experiment with MCF7 breast were 3.73 µM, 3.48 µM and 3.13 µM, respectively.
With `CCOC(=O)c1c(C)n(Cc2ccc(Cl)cc2Cl)c2c1cc1oc(=O)c(=O)n3cnc2c13`, the GI50 in the experiment with BT-549 breast was 21.6 µM; in the experiment with OVCAR-3 ovarian, 14.4 µM; with COLO 205 colon, 17 µM; in the experiment with SNB-75 CNS it was 3.39 µM; in the experiment with SK-MEL-5 melanoma, 18 µM; in the experiment on SF-539 CNS, 20.6 µM. For the same molecule, the GI50 in the experiment with SW-620 colon was 22.1 µM; in the experiment on HOP-62 NSCLC, 15.5 µM; in the experiment with K-562 leukemia, 5.14 µM. The TGI is 40.9 µM with BT-549 breast; 31.9 µM in the experiment on OVCAR-3 ovarian; 33.3 µM with COLO 205 colon; 15.3 µM in the experiment with SNB-75 CNS; 34.3 µM in the experiment with SK-MEL-5 melanoma; 38.3 µM in the experiment on SF-539 CNS. The results for the TGI in the experiment on SW-620 colon, in the experiment with HOP-62 NSCLC and in the experiment with K-562 leukemia were 40.5 µM, 33.1 µM and 22.6 µM, respectively.
As to `O=C(Nc1ccc(F)cc1F)c1cc(Cl)ccc1O`, the GI50 is 0.62 µM in the experiment with BT-549 breast; 0.955 µM in the experiment with OVCAR-3 ovarian; 7.79 µM in the experiment on COLO 205 colon; 1.09 µM in the experiment with SNB-75 CNS; 0.608 µM with SK-MEL-5 melanoma; 1.01 µM in the experiment on SF-539 CNS. In addition, the GI50 with SW-620 colon is 2.61 µM; in the experiment with HOP-62 NSCLC it was 1.2 µM; in the experiment with MCF7 breast, 2.05 µM. Also, the TGI was 3.31 µM with BT-549 breast; 16.8 µM in the experiment on OVCAR-3 ovarian; 22.5 µM in the experiment on COLO 205 colon; 3.79 µM with SNB-75 CNS; 2.03 µM in the experiment with SK-MEL-5 melanoma; 9.9 µM with SF-539 CNS. Further, the figures for the TGI in the experiment with SW-620 colon, with HOP-62 NSCLC and with MCF7 breast were 18.7 µM, 4.37 µM and above 100 µM, respectively.
As to `COc1ccc(Nc2nc3ccccc3c3occc23)cc1`, the GI50 was 6.08 µM in the experiment on BT-549 breast; 7.85 µM in the experiment with OVCAR-3 ovarian; 7.71 µM in the experiment on COLO 205 colon; 5.08 µM with SK-MEL-5 melanoma; 8.89 µM with SF-539 CNS; 4.06 µM in the experiment on SW-620 colon. Besides, the GI50 in the experiment with HOP-62 NSCLC was 10 µM; with K-562 leukemia, 6.74 µM; in the experiment with MCF7 breast, 7.02 µM. The TGI with BT-549 breast is 13.5 µM; with OVCAR-3 ovarian, above 50 µM; in the experiment with COLO 205 colon, 18.6 µM; with SK-MEL-5 melanoma, 11.1 µM; with SF-539 CNS, 18.9 µM; with SW-620 colon, 11 µM. For the same molecule, the TGI in the experiment on HOP-62 NSCLC was 23.7 µM; with K-562 leukemia, above 50 µM; with MCF7 breast, 27.2 µM.
